From the supplement of paper PMC10307832

Key:
Assay in all cases: relative viability (nuclei count vs DMSO), 5 days (fraction); higher = more cells survive
[1] = compound: CC1=NN=C(O1)C2=NN=C(C=C2)N3CCC(CC3)OC4=C(C=CC(=C4)F)Cl + CCNC(=O)c1noc(-c2cc(C(C)C)c(O)cc2O)c1-c1ccc(CN2CCOCC2)cc1 [Luminespib] (partner 0.01 µM)
Summary of the method: (§1)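 Medians of duplicate plates are given as relative viability. That measure is the nuclei count in treated wells divided by the count in vehicle wells. Counts were taken on 4× images of lung cancer cell lines in 1536-well plates, 5 days after pin-tool dosing the day after seeding with one drug alone or a fixed anchor-drug dose plus five library-drug doses (not always all listed) in √10 steps.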

[2] = compound: CC1=NN=C(O1)C2=NN=C(C=C2)N3CCC(CC3)OC4=C(C=CC(=C4)F)Cl + Cc1nc(Nc2ncc(C(=O)Nc3c(C)cccc3Cl)s2)cc(N2CCN(CCO)CC2)n1 [Dasatinib] (partner 0.075 µM)
Summary of the method: as §1

[3] = compound: CC(C)C[C@@H](C(=O)N[C@H](C(=O)OC1CCCC1)c1ccccc1)[C@H](O)C(=O)NO [Tosedostat] + CC1(C)CCC(c2ccc(Cl)cc2)=C(CN2CCN(c3ccc(C(=O)NS(=O)(=O)c4ccc(N[C@H](CCN5CCOCC5)CSc5ccccc5)c(S(=O)(=O)C(F)(F)F)c4)cc3)CC2)C1 [Navitoclax] (partner 0.5 µM)
Summary of the method: as §1

[4] = compound: CC(C)C[C@@H](C(=O)N[C@H](C(=O)OC1CCCC1)c1ccccc1)[C@H](O)C(=O)NO [Tosedostat] + CS(=O)(=O)CCNCc1ccc(-c2ccc3ncnc(Nc4ccc(OCc5cccc(F)c5)c(Cl)c4)c3c2)o1 [Lapatinib] (partner 2 µM)
Summary of the method: as §1

Cell Line	relative viability ([1]; first compound 0.253 µM)	relative viability ([1]; first compound 2.53 µM)	relative viability ([1]; first compound 8 µM)	relative viability ([2]; first compound 0.253 µM)	relative viability ([2]; first compound 0.8 µM)	relative viability ([2]; first compound 2.53 µM)	relative viability ([2]; first compound 8 µM)	relative viability ([3]; first compound 0.02 µM)	relative viability ([3]; first compound 0.06325 µM)	relative viability ([3]; first compound 0.2 µM)	relative viability ([3]; first compound 0.6325 µM)	relative viability ([3]; first compound 2 µM)	relative viability ([4]; first compound 0.02 µM)	relative viability ([4]; first compound 0.06325 µM)	relative viability ([4]; first compound 0.2 µM)	relative viability ([4]; first compound 0.6325 µM)	relative viability ([4]; first compound 2 µM)	relative viability ([1]; first compound 0.8 µM)
NCI-H2085	0.499	0.339	0.216	0.303	0.234	0.255	0.227	1.04	1.06	1.09	1.05	1.08	0.568	0.825	0.827	0.743	0.836	
CAL-12T	0.362	0.501	0.415	0.315	0.34	0.374	0.228	1.27	1.13	1.19	1.16	0.965	0.545	0.7	0.728	0.669	0.678	0.342
NCI-H1623	0.465	0.486	0.433	0.522	0.492	0.498	0.441											0.52
HCC-44	0.739	0.725	0.731					0.849	0.912	0.949	0.946	0.539	1.04	0.994	0.94	0.937	0.678	0.812
EKVX	0.447	0.331	0.32	0.513	0.464	0.436	0.532	0.962	0.969	0.898	0.944	0.804	0.19	0.233	0.418	0.218	0.227	0.362
NCI-H1734	0.237	0.249	0.189	0.496	0.417	0.477	0.401	0.833	0.801	0.789	0.735	0.683	1.23	1.11	0.997	1.01	0.763	0.206
NCI-H1944	0.45	0.483	0.402	0.212	0.23	0.224	0.264	1.1	0.975	1.08	1.02	1.01	0.94	0.836	0.854	0.81	0.904	0.417
NCI-H1792	0.34	0.419	0.431	0.578	0.714	0.78	0.707	0.63	0.839	0.651	0.652	0.567	0.988	1.04	0.878	0.863	0.823	0.38
Calu-6								0.919	0.787	0.655	0.668	0.461	1.33	1.04	0.951	0.899	0.864	
EBC-1								0.42	0.473	0.423	0.356	0.305	0.241	0.245	0.195	0.22	0.17	
NCI-H596	0.938	0.945	0.889	0.558	0.602	0.647	0.506	1.01	1.06	1.01	0.996	0.805	1.21	1.16	1	1.22	1.07	0.849
A-427	0.882	0.708	0.732	0.654		0.669	0.63	0.921	0.925	0.999	1.03	0.925	1.13	1.1	1.01	1.02	0.995	
NCI-H441	0.295	0.245	0.282	0.566	0.492	0.664	0.493	1.01	0.477	0.421	0.576	0.339						0.32
NCI-H1563	0.488	0.519	0.532	0.465	0.48	0.55	0.452						1.03	1.03	0.957	0.956	1.05	0.52
NCI-H358	0.287	0.177	0.207	0.199	0.196	0.19	0.188						0.514	0.454	0.374	0.407	0.456	0.176
LOU-NH91	0.317	0.307	0.315	0.473	0.517	0.512	0.509	0.753	0.657	0.615	0.543	0.483	0.8	0.88	0.875	0.868	0.778	0.318
NCI-H3122	0.0576	0.0895	0.0702	0.283	0.313	0.28	0.23	1.05	1.05	0.996	1.05	1.03	1.09	0.99	1.07	1.07	1.04	0.108
HOP-62	0.63	0.697	0.634	0.571	0.633	0.606	0.6	1.19	1	1.01	1.02	0.914	1.08	0.935	1.08	0.891	0.983	0.638
HARA	0.234	0.202	0.184	0.271	0.248	0.247	0.235	1.17	1.2	1.1	0.894	1.15	0.756	0.797	0.611	0.775	0.574	0.204
SW 1573	0.184	0.264	0.2	0.452	0.535	0.459	0.315	1.06	1.05	1.06	0.796	0.959	1.18	1.12	1.19	1.05	1.05	0.204
NCI-H1993	0.636	0.74	0.725	0.537	0.564	0.768	0.549	0.895	0.877	0.817	0.747	0.603	0.904	0.997	0.857	0.87	0.734	0.829
HCC-78				0.413	0.302	0.341	0.244	0.717	0.808	0.736	0.868	0.948	0.647	0.764	0.684	0.841	0.746	

Cell Line	relative viability ([1]; first compound 0.253 µM)	relative viability ([1]; first compound 2.53 µM)	relative viability ([1]; first compound 8 µM)	relative viability ([2]; first compound 0.253 µM)	relative viability ([2]; first compound 0.8 µM)	relative viability ([2]; first compound 2.53 µM)	relative viability ([2]; first compound 8 µM)	relative viability ([3]; first compound 0.02 µM)	relative viability ([3]; first compound 0.06325 µM)	relative viability ([3]; first compound 0.2 µM)	relative viability ([3]; first compound 0.6325 µM)	relative viability ([3]; first compound 2 µM)	relative viability ([4]; first compound 0.02 µM)	relative viability ([4]; first compound 0.06325 µM)	relative viability ([4]; first compound 0.2 µM)	relative viability ([4]; first compound 0.6325 µM)	relative viability ([4]; first compound 2 µM)	relative viability ([1]; first compound 0.8 µM)
IA-LM								0.731	0.655	0.875	0.585	0.603	0.885	0.925	0.61	0.746	0.645	
NCI-H647	0.171	0.16	0.263	0.196	0.222	0.207	0.178	1.25	1.22	0.936	1.08	1.14	1.17	1.11	1.07	0.926	0.969	0.128
NCI-H520	0.207	0.199	0.2	0.258		0.211	0.222	1.19	1.3	1.14	1.08	1.4	0.815	0.984	0.96	0.923	1.03	0.217
NCI-H1355	0.538	0.601	0.623	0.314	0.526	0.781	0.585	0.766	0.795	1.05	0.979	0.803	1.02	1.03	0.88	0.913	0.915	0.582
COR-L23	0.587	0.458	0.474	0.438	0.375	0.39	0.343	1.2	1.04	1.04	0.884	0.958	1.03	0.946	0.918	0.817	0.99	0.647
NCI-H2347		0.421	0.459		0.343	0.33	0.277	0.671	0.8	0.766	0.688	0.68	1.12	1.02	1.03	0.892	0.888	0.433
LC-2-ad	0.567	0.544	0.483	0.4	0.389	0.48	0.505	0.614	0.419	0.473	0.386	0.264	1.02	0.981	0.993	0.909	1.04	0.488
NCI-H2023	0.376	0.336	0.253	0.429	0.442	0.476	0.402	1.07	0.989	1.05	0.938	0.923	0.94	0.953	0.795	0.457	0.753	0.389
NCI-H1793	0.132	0.166	0.405	0.378	0.342	0.448	0.371	0.402	0.463	0.402	0.449	0.4	0.579	0.73	0.874	0.82	0.618	0.348
NCI-H1299								1.09	1.03	1.04	1.02	0.948	1.02	0.954	0.96	0.951	0.892	
ChaGo-K-1	0.426	0.56	0.541	0.604	0.531	0.654	0.352	1.23	1.1	0.905	1.01	0.761						0.532
NCI-H522	1.2	1.15	1.22	0.856	0.842	0.974	0.938											0.989
NCI-H1703								0.89	0.945	0.898	0.635	0.691	1.35	1	1.02	0.743	0.943	
NCI-H2342	0.501	0.484	0.476	0.286	0.293	0.325	0.274											0.528
SW 900		0.175	0.175			0.642	0.542											
HCC-366				0.292	0.375	0.471	0.361	1.15	1.01	1.02	1.01	1.11	1.12	0.954	1	0.993	0.997	
A549								1.37	1.15	1.14	1.19	1.01	1	1.07	0.957	0.925	0.939	
NCI-H661	0.785	0.714	0.549	0.785	0.608		0.68						0.428	0.479	0.449	0.591	0.425	0.751
ABC-1	0.35	0.207	0.262	0.457	0.32	0.318	0.361						1.34	1.12	1.2	1.19	1.23	0.362
LCLC-103H	0.678	0.537	0.582	0.401	0.392	0.449	0.427											0.74
NCI-H650	0.77	0.703	0.793	0.496	0.436	0.419	0.445						1.19	0.996	0.608	0.775	0.489	0.685
